Measured values taken from US10674699B2, “Endophyte enhanced seedlings with increased pest tolerance” (priority 2006, dated 2020).

Key:
[1] = test system: Choristoneura fumiferana (spruce budworm) larvae; conditions: Calhoun et al. 1992; cited from earlier work
[2] = test system: Zeiraphera canadensis larvae (spruce budmoth); assay: Dietary rugulosin in artificial diet, wild collected spruce budmoth larvae; assay type: in vivo
Description: (§1) Zeiraphera canadensis larvae (spruce budmoth) were collected from the wild near Sussex in mid June. They were immediately put in test vials and tested at rugulosin concentrations of 10, 50, 100 and 150 μM (75 per concentration). After seven days, surviving larvae were frozen and measured.

[3] = test system: HepG2 cells (human hepatoma cells); conditions: Watts et al. 2003; cited from earlier work
[4] = test system: Aspergillus fumigatus; assay: Fungal growth in budmoth test vials with dietary rugulosin; assay type: cell-based; conditions: A. fumigatus-contaminated larvae; few vials with fungal growth at 100 and 150 μM
Description: as §1
Many (60%) succumbed to fungal infections (Aspergillus fumigatus) and other unknown causes over the course of rearing. […] However, using the Wilcoxon matched-pairs signed-ranks test, the larvae fed 100 or 150 μM rugulosin in the diet were lighter than those fed the 10 μM rugulosin and control diets (p<0.10). Because of the high percentage of A. fumigatus-contaminated larvae in the experiment, an unanticipated result was the antifungal activity observed above 50 μM, few vials had fungal growth in the tests at 100 μM and 150 μM rugulosin.

[5] = test system: C. fumiferana (spruce budworm) larvae; assay: Budworm growth on endophyte-infected nursery trees (mesh bags); assay type: in vivo, Choristoneura fumiferana; conditions: four year old trees, branches above and below 0.5 μg g^−1
From the text: disease-free second instar spruce budworm larvae as follows: A set number of budworm were placed by hand on lateral branches with buds and then covered with a mesh screen on both endophyte-positive and negative trees. Temperature recorders were placed in the holding area and the progress monitored until the budworm was not greater than sixth instar. At termination, the insects were collected, frozen for subsequent determinations of head capsule width and frozen weight. Samples were collected for toxin analysis to ensure that there was no misclassification of the trees as to their endophyte status.
Nursery experiments: The tests were conducted at the J.D. Irving, Limited Sussex Tree Nursery in New Brunswick, Canada (45° 43′ N, 65° 31′ W; elevation 21.30 m). In two successive years, several hundred seedlings grown as container stock in mulitpot 67 seedling containers were inoculated with the rugulosin-producing endophyte 5WS22E1 (DAOM 229536; CBS 120377). […]
Temperature recorders (Hobo Dataloggers, Onset Computer Corporation, Pocasset, Mass.) were placed in the holding area and the progress monitored until the budworms were not older than sixth instars. […] Head capsule widths were determined using a stereo microscope at 40× with ocular and stage micrometers. […]

[6] = test system: mice; conditions: ip in mice; Ueno et al. 1971; cited from earlier work

Compound: Cc1cc(O)c2c(c1)C(=O)[C@]13C(=C2O)C(=O)[C@@H]2[C@H](O)[C@H]1[C@@H]1[C@@H](O)[C@H]3C(=O)C3=C(O)c4c(O)cc(C)cc4C(=O)[C@]312 [rugulosin]
- toxicity to C. fumiferana larvae in an artificial diet [1]: toxic
- larval weights, controls vs treatment groups by ANOVA (LSD, Tukey) ([2]; 10, 50, 100 and 150 μM rugulosin, seven days): not significantly different
- effect of rugulosin on wild collected larvae relative to the other insect species ([2]; diet): same order of magnitude
- dietary concentration reducing body weight and/or affecting instar development ([2]; in vitro, diet): ~50 µM
- cytotoxicity [3]: not cytotoxic
- rugulosin concentration above which antifungal activity was observed [4]: above 50 μM
- Pearson correlation between rugulosin concentration and budworm weight [5]: −0.288
- LD50 [6]: 55 mg kg^−1 BW
